Data taken from patent US11072632B2, “Inhibitors of 17β-HSD1, 17β-HSD3 and 17β-HSD10” (UNIVERSITÉ LAVAL, priority 2011, dated 2021).
Where two headings read alike, the source gives them in different places.

Legend:
[1] = biological target: T1, 17β-HSD3 (Homo sapiens, UniProt P37058); assay: Inhibition of 17β-HSD3 in homogenated HEK-293 cells; type: biochemical
T1 construct: expressed in transfected cells; host or cells: HEK-293 (homogenate)
T1 sequence (P37058 1-310): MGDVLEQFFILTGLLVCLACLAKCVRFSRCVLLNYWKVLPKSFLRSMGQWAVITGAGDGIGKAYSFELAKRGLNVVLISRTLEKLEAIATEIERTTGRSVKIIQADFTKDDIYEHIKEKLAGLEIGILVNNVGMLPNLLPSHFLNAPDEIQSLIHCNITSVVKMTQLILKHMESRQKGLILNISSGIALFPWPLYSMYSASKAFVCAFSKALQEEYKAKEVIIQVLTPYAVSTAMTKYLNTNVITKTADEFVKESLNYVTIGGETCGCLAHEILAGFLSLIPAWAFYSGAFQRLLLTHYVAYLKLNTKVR

[2] = biological target: T1, 17β-HSD3; assay: Inhibition of 17β-HSD3 in intact HEK-293 cells; type: cell-based; conditions: for Intact cells (%), tested at 1 μM: Table 3, footnote b
[3] = biological target: T2, 17β-HSD10 (Homo sapiens, UniProt Q99714); assay: Inhibition of 17β-HSD10 in stably transfected HEK-293 whole cells (E2 into E1); type: cell-based
T2 construct: expressed in transfected cells
T2 sequence (Q99714 1-261): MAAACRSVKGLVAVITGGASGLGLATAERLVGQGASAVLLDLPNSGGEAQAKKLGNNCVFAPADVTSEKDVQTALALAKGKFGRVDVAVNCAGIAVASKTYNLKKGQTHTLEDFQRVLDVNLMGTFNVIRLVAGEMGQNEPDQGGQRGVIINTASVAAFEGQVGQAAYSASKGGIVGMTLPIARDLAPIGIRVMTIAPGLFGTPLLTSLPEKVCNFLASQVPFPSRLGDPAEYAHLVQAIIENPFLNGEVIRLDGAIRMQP

[4] = biological target: T3, 17β-HSD1 (Homo sapiens, UniProt P14061); assay: Inhibition of 17β-HSD1 in T-47D intact cells (E1 into E2); type: cell-based; conditions: T47D; for inhibition at 1 µM: read-out: Inhibition (1 μM)
T3 construct: endogenous in cells; host or cells: T-47D
T3 sequence (P14061 1-328): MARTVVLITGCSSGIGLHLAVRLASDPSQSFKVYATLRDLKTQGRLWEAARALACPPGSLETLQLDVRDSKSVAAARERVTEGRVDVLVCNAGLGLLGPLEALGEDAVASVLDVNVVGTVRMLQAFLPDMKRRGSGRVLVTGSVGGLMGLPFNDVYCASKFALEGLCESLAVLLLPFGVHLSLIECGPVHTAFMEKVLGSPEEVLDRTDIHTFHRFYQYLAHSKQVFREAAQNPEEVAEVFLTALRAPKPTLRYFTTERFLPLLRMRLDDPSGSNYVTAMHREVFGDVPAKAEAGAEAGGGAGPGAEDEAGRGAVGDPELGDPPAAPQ
Protocol: T-47D cells were seeded in a 24-well plate (3000 cells/well) in medium supplemented with insulin (50 ng/mL) and 5% dextran-coated charcoal treated FBS rather than 10% FBS to remove remaining hormones. […] Each inhibitor was assessed in triplicate. After incubation, the culture medium was removed and labelled steroids (E1 and E2) extracted with 1 mL of diethyl ether. The organic phases were separated and evaporated to dryness using nitrogen. Residues were dissolved in dichloromethane and dropped on silica gel thin layer chromatography plates (EMD Chemicals Inc., Gibbstown, N.J., USA) and eluted with a toluene/acetone (4:1) solvent system. Substrate [^14C]-E1 and metabolite [^14C]-E2 were identified by comparison with reference steroids and quantified using a Storm 860 system (Molecular Dynamics, Sunnyvale, Calif., USA).
T-47D cells were seeded in a 24-well plate (3000 cells/well) in 990 μL of medium supplemented with insulin (50 ng/mL) and 5% dextran-coated charcoal-treated FBS, which was used rather than untreated 10% FBS, to remove the remaining steroid hormones. […] The final concentration of ethanol in the well was adjusted to 0.1%. Additionally, 5 μL of a solution of [^14C]-estrone (American Radiolabeled Chemicals, Inc., St. Louis, Mo., USA) was added to obtain a final concentration of 60 nM. […] After incubation, the culture medium was removed and labeled steroids (E1 and E2) were extracted with 1 mL of diethyl ether. The organic phases were evaporated to dryness with nitrogen. Residues were dissolved in dichloromethane and dropped on silica gel thin layer chromatography plates (EMD Chemicals Inc., Gibbstown, N.J., USA) and eluted with toluene/acetone (4:1) as solvent system. Substrate [^14C]-E1 and metabolite [^14C]-E2 were identified by comparison with reference steroids (E1 and E2) and quantified using the Storm 860 system (Molecular Dynamics, Sunnyvale, Calif., USA).

[5] = Table 3, read-out: Homo (%) (0.01 μM)
[6] = Table 3, read-out: Homo (%) (0.1 μM)
[7] = HEK293, 1 h, Table 3, read-out: Intact cells (%) (0.1 μM)
[8] = HEK293, [14C]-E2 (1 μM) into [14C]-E1, intact HEK-293 cells, 1 μM, read-out: Inhibition (%) at 1 μM
[9] = [14C]-E2 (1 μM) into [14C]-E1, intact HEK-293 cells, 1 μM

SMILES	inhibition at 0.01 µM [1, 5] [%]	inhibition at 0.1 µM [1, 6] [%]	inhibition at 1 µM [3, 8] [%]	Intact cells (%), tested at 1 μM ([2]; 1 μM)	Homo (%) (0.01 μM) ([1]; Table 3)	Homo (%) (0.1 μM) ([1]; Table 3)	Inhibition (%) at 1 μM [3, 9] [%]	further results
C[C@]12CC[C@](O)(CN3CCN(Cc4ccccc4)CC3)C[C@@H]1CC[C@@H]1[C@@H]2CC[C@]2(C)C(=O)CC[C@@H]12 [Compound 7j, (3α,5α)-3-[(4-benzylpiperazin-1-yl)methyl]-3-hydroxyandrostan-17-one]	–	–	–	–	–	–	–	inhibition at 0.01 µM ([1]; Table 2 (17β-HSD3), [14C]-Δ4-dione 50 nM into [14C]-T, read-out: Homo (%) (0.01 μM)): 35%; inhibition at 0.01 µM ([1]; read-out: Homo (%) (0.01 μM), Table 3): 36%; inhibition at 0.1 µM ([1]; read-out: Homo (%) (0.1 μM), Table 2 (17β-HSD3)): 72%; inhibition at 0.1 µM ([1]; read-out: Homo (%) (0.1 μM), Table 3): 74%; inhibition at 1 µM ([1]; read-out: Homo (%) (1 μM), Table 2 (17β-HSD3), 1 μM): 90%; inhibition at 0.1 µM ([2]; HEK293, 1 h, read-out: Intact cells (%) (0.1 μM), Table 2 (17β-HSD3)): 37%; inhibition at 0.1 µM ([2]; HEK293, 1 h, read-out: Intact cells (%) (0.1 μM), Table 3): 38%; inhibition at 1 µM ([2]; HEK293, 1 h, read-out: Intact cells (%) (1 μM), Table 2 (17β-HSD3), 1 μM): 80%; inhibition at 1 µM ([3]; HEK293, read-out: Inhibition (%) at 1 μM): 57%
C[C@]12CC[C@](O)(CN3CCN(Cc4cccc(C(F)(F)F)c4)CC3)C[C@@H]1CC[C@@H]1[C@@H]2CC[C@]2(C)C(=O)CC[C@@H]12 [Compound 10a, (3α,5α)-3-hydroxy-3-({4-[3-(trifluoromethyl)benzyl]piperazin-1-yl}methyl)androstan-17-one]	51	88	34	–	–	–	–	inhibition at 0.1 µM [2, 7]: 52%
C[C@]12CC[C@](O)(CN3CCN(Cc4ccccc4C(F)(F)F)CC3)C[C@@H]1CC[C@@H]1[C@@H]2CC[C@]2(C)C(=O)CC[C@@H]12 [Compound 10b, (3α,5α)-3-hydroxy-3-({4-[2-(trifluoromethyl)benzyl]piperazin-1-yl}methyl)androstan-17-one]	18	86	50	–	–	–	–	inhibition at 0.1 µM [2, 7]: 20%
C[C@]12CC[C@](O)(CN3CCN(Cc4cccc(SC(F)(F)F)c4)CC3)C[C@@H]1CC[C@@H]1[C@@H]2CC[C@]2(C)C(=O)CC[C@@H]12 [Compound 10d, (3α,5α)-3-hydroxy-3-[(4-{3-[(trifluoromethyl)sulfanyl]benzyl}piperazin-1-yl)methyl]androstan-17-one]	3	91	29	N/A (62)^b %	–	–	–	–
C[C@]12CC[C@](O)(CN3CCN(Cc4cccc(Cl)c4)CC3)C[C@@H]1CC[C@@H]1[C@@H]2CC[C@]2(C)C(=O)CC[C@@H]12 [Compound 10e, (3α,5α)-3-{[4-(3-chlorobenzyl)piperazin-1-yl]methyl}-3-hydroxyandrostan-17-one]	–	–	–	N/A (75)^b %	26	85	21	–
COc1cccc(CN2CCN(C[C@@]3(O)CC[C@@]4(C)[C@@H](CC[C@@H]5[C@@H]4CC[C@]4(C)C(=O)CC[C@@H]54)C3)CC2)c1 [Compound 10f, (3α,5α)-3-hydroxy-3-{[4-(3-methoxybenzyl)piperazin-1-yl]methyl}androstan-17-one]	21	83	59	–	–	–	–	inhibition at 0.1 µM [2, 7]: 47%; IC50 ([3]; intact transfected HEK-293 cells, E2 1 μM, read-out: IC50): 550 nM
C[C@]12CC[C@](O)(CN3CCN(Cc4cccnc4)CC3)C[C@@H]1CC[C@@H]1[C@@H]2CC[C@]2(C)C(=O)CC[C@@H]12 [Compound 10g, (3α,5α)-3-hydroxy-3-{[4-(pyridin-3-ylmethyl)piperazin-1-yl]methyl}androstan-17-one]	10	33	37	N/A (63)^b %	–	–	–	–
CC1CN(C[C@@]2(O)CC[C@@]3(C)[C@@H](CC[C@@H]4[C@@H]3CC[C@]3(C)C(=O)CC[C@@H]43)C2)C(C)CN1Cc1cccc(C(F)(F)F)c1 (stereo partly drawn) [Compound 11a, (3α,5α)-3-({(2ξ,5ξ)-2,5-dimethyl-4-[3-(trifluoromethyl)benzyl]piperazin-1-yl}methyl)-3-hydroxyandrostan-17-one]	–	–	–	N/A (78)^b %	31	89	26	–
CC1CN(CC2(O)CCC3(C)C(CCC4C5CCC(=O)C5(C)CCC43)C2)C(C)CN1Cc1ccccc1C(F)(F)F (stereo not drawn) [Compound 11b, (3α,5α)-3-({(2ξ,5ξ)-2,5-dimethyl-4-[2-(trifluoromethyl)benzyl]piperazin-1-yl}methyl)-3-hydroxyandrostan-17-one]	–	–	–	–	22	85	25	Intact cells (%) (0.1 μM) ([2]; Table 3): 36%
CC1CN(C[C@@]2(O)CC[C@@]3(C)[C@@H](CC[C@@H]4[C@@H]3CC[C@]3(C)C(=O)CC[C@@H]43)C2)C(C)CN1Cc1ccc(C(F)(F)F)cc1 (stereo partly drawn) [Compound 11c, (3α,5α)-3-({(2ξ,5ξ)-2,5-dimethyl-4-[4-(trifluoromethyl)benzyl]piperazin-1-yl}methyl)-3-hydroxyandrostan-17-one]	–	–	–	–	14	87	24	Intact cells (%) (0.1 μM) ([2]; Table 3): 36%
C[C@]12CC[C@@H]3c4ccc(CN5CCCC5)cc4CC[C@H]3[C@@H]1C[C@H](Cc1cccc(C(N)=O)c1)[C@@H]2O [Compound 40c, 3-{[(16β,17β)-17-hydroxy-3-(pyrrolidin-1-ylmethyl)estra-1,3,5(10)-trien-16-yl]methyl}benzamide]	–	–	–	–	–	–	–	inhibition at 0.1 µM ([4]; Table 2 (17β-HSD1), [14C]-E1 60 nM, T-47D intact cells, 0.1 μM, read-out: Inhibition (0.1 μM)): 1%; inhibition at 1 µM ([4]; Table 2 (17β-HSD1), [14C]-E1 60 nM, T-47D intact cells, 1 μM): 28%
C[C@]12CC[C@@H]3c4ccc(C(=O)N5CCCC5)cc4CC[C@H]3[C@@H]1C[C@H](Cc1cccc(C(N)=O)c1)[C@@H]2O [Compound 41c, 3-{[(16β,17β)-17-hydroxy-3-(pyrrolidin-1-ylcarbonyl)estra-1,3,5(10)-trien-16-yl]methyl}benzamide]	–	–	–	–	–	–	–	inhibition at 0.1 µM ([4]; read-out: Inhibition (0.1 μM)): 0%; inhibition at 1 µM [4]: 13%
C[C@]12CC[C@@H]3c4ccc(CBr)cc4CC[C@H]3[C@@H]1C[C@H](Cc1cccc(C(N)=O)c1)[C@@H]2O [III, 3-{[(16β,17β)-3-(bromomethyl)-17-hydroxyestra-1,3,5(10)-trien-16-yl]methyl}benzamide]	–	–	–	–	–	–	–	inhibition at 0.01 µM ([4]; read-out: Inhibition % (0.01 μM)): 20%; inhibition at 0.1 µM ([4]; read-out: Inhibition % (0.1 μM)): 36%; inhibition at 0.1 µM ([4]; read-out: Inhibition (0.1 μM)): 19%; inhibition at 1 µM [4]: 66%
